Laboratory results taken from PMC10447463, “Data-mining unveils structure–property–activity correlation of viral infectivity enhancing self-assembling peptides” (Nature Communications, 2023).
Several values for one entry are separate records, joined by “and”; a condition that tells them apart may be missing. Identical values can stand only once.

How the values were obtained:
[1] = Aggregate analysis by widefield fluorescence microscopy; format: physicochemical; conditions: for Number of Aggregates / Aggregate Number: ThT-stained aggregates > 10 µm2 in 1330 µm × 1330 µm, 1 mg/mL 1 d, diluted to 0.1 mg/mL with 50 µM ThT, 3D object counter ImageJ, triplicate
Protocol: 4 µL of 1 mg/mL peptide fibrils solution is added to a 20 µL, 50 µM ThT–solution in PBS. The mixture is incubated for 15 min at RT to allow binding of ThT dye with β–sheet rich structures. For reference PBS (4 µL) was added instead of peptide fibril solution. The samples were placed in black UV Star® 384 microliter well–plates (Greiner bio–one). Fluorescence spectra were recorded on an Infinite® M1000 PRO microplate reader (Tecan) at λem = 488 nm upon excitation at λex = 440 nm with 10 nm bandwidths and multiple reads per well (3×3). Measurements were repeated in triplicates and averaged with standard deviation. A peptide fibril was considered as ThT-active if the fluorescence intensity was at least twice as strong compared to the control (PBS containing 10% DMSO). Zeta-Potential. For the determination of the surface charge of aggregated peptides zeta-potential measurements were conducted with a Zetasizer Nano ZS, Malvern Instruments. Unless stated otherwise the peptides were dissolved from DMSO (10 mg/mL) in PBS (pH 7.4) to concentration of 1 mg/mL and incubated for 1d at RT. Just before the measurement the 60 µL of the peptides were further diluted in 600 µL KCl (aq, 1 mM) in a 1 mL disposable folded capillary cells (DTS–1060, Zetasizer Nano series, Malvern). The zeta potential of the peptides was derived from the electrophoretic mobility based on the Smoluchowski formula. All measurements were averaged over two individually performed experiments and conducted in triplicates for each sample. Aggregate analysis. […] Furthermore, fluorescence microscopy was conducted by staining 1 µL preformed fibrils (1 mg/mL) with 9 µL ThT (50 µM). Brightfield microscopy was performed simultaneously to evaluate aggregation also for non ThT-active fibrils. The measurements were performed on a Leica DMi8 microscope with 10x air objective and equipped with a Leica MC170 HD camera with a filter setting λem = 527/30 nm upon excitation at λex = 480/40 nm) and processed with the Leica LASX software. To quantify size and number of microscopic aggregation of particles > 10 µm^2 at least 3 independently measured images were analyzed via the 3D object counter analysis tool of ImageJ, v 1.53f51. Sum–frequency generation. The SFG experiments were carried out with a femtosecond Ti: Sapphire amplified laser system (Spitfire Ace, Spectra–Physics, 800 nm, 40 fs, 1 kHz) with 5 W output power. We used 2 W to pump an optical parametric amplifier (TOPAS, light conversion) with a non–collinear difference frequency generation stage to generate broadband IR pulses. Another 1 W of the laser output passed through an etalon to generate narrowband visible pulses (10 cm^-1). The incident angles of the visible and IR beams were 36° and 41° with respect to the surface normal, respectively. The visible (13 µJ) and IR (5 µJ) pulses were overlapped spatially and temporally at the sample position. Subsequently, the generated SFG pulse was guided into a spectrograph (Acton SP 300i, Princeton Instruments), and detected with an EMCCD (Newton, Andor Technology). To avoid IR absorption of water vapor, we purged N2 for the measurement. All spectra were collected in the ssp (denoting s-, s- and p-polarized SFG, visible and IR, respectively) polarization combination. The spectra were normalized to the non–resonant signal taken from z–cut quartz after subtracting a background spectrum.
Table S8 Summary of aggregate analysis from widefield microscopy measurements (Figure S32). The Number of aggregated peptides, the median size area, average size area
and the cumulative total size area of all particles (> 10 µm2) in an area of 1330 µm × 1330 µm was determined via automated 3D object counting (ImageJ) in triplicate
measurements (Std. Dev.).
Aggregate Std. Dev. Std. Dev. Std. Dev. Std. Dev.
Sequence Abs. Inf. / Std. Dev. / Count Rate / Std. Dev. Number Aggregate Median Area Median Area Average Area Average Area Total Area/ Total Area/ […]

[2] = previously reported peptides only; ref sieste 2021 or Schilling2019; cited from earlier work
Text: Supplement 41467_2023_40663_MOESM7_ESM.zip/FigS17.csv, table | column: Conversion Rate / % ( from sieste 2021 or Schilling2019)

TZM-bl cells = format: cell-based; conditions: CellTiter-Glo, mean of n = 3 replicates
Protocol: The cell viability after addition of peptides to TZM–bl cells was studied via the CellTiter–Glo assay. To this end, 10,000 cells were seeded and on the next day serial diluted peptides were added. After 3 days the supernatant was removed and 100 µL CellTiter–Glo Reagent 1:1 diluted in PBS was added. After 10 min 50 µL was transferred to white microplate and luminescence was recorded by Orion microplate luminometer.
2. Cell Viability of Representatively Selected Peptides
Figure S 2 Cell Viability normalized to 100% metabolic activity as determined by CellTiterGlo Assay of 57 representatively selected peptides from the library. The selection represents infectivity enhancing and not […]
concentration. Error bars indicate standard deviation from triplicate measurements. Source data for Figure S2 […]
Figure S3 Cell Viability normalized to 100% metabolic activity determined by CellTiterGlo Assay of 20 peptides reported in literature. 33,34,43–48,35–42 Cell viability (> 80%) is maintained for all peptides at 1.3 µM concentration regardless of the preparation method, which is A PNF formation method by dilution of 10 mg/mL peptide stock in DMSO in PBS to 1 mg/mL or B preparation according to literature reported protocol (SI Section 8). Error bars indicate standard deviation from triplicate measurements. Source data for Figure S3 is provided.

CKIKQIINMWQ
Number of Aggregates / Aggregate Number [1]: 195

HHHHKIKIKIKIWWWW [TM4]
Avg Area in 3 *(1330 µm *1330 µm) ([1]; Fig S8 panels A, C): 50.02 | Log 10 Number of aggregates in 3 * (1330 µm *1330 µm) ([1]; Fig S8 panels A, C): 2.649 | Median Area in 3 * (1330 µm *1330 µm) ([1]; Fig S8 panels A, C): 24.51 | log Avg Area in 3 * ( (1330 µm *1330 µm)) ([1]; Fig S8 panels A, C): 1.699 | log Median Area in 3 * ( (1330 µm *1330 µm)) ([1]; Fig S8 panels A, C): 1.389 | log Total Area of all particles in 3 * (1330 µm *1330 µm) ([1]; Fig S8 panels A, C): 4.348 | Number of aggregates in 3 * (1330 µm *1330 µm) ([1]; Fig S8 panels A, C, 3 fields of 1330 µm x 1330 µm): 445.7 | Avg Area in 3 *(1330 µm *1330 µm) ([1]; Fig S8 panels B, D, average aggregate area, 3 fields of 1330 µm x 1330 µm): 50.02 | Median Area in 3 * (1330 µm *1330 µm) ([1]; Fig S8 panels B, D, median aggregate area, 3 fields of 1330 µm x 1330 µm): 24.51 | Total Area of all particles in 3 * (1330 µm *1330 µm) ([1]; Fig S8 panels B, D, total area of all particles, 3 fields of 1330 µm x 1330 µm): 22293.86733 | Number of aggregates in 3 * (1330 µm *1330 µm) ([1]; Fig S8 panels B, D, widefield fluorescence microscopy, 3 fields of 1330 µm x 1330 µm): 445.7 | Conversion Rate / % ( from sieste 2021 or Schilling2019) [2]: 96% | viability 0.26 µM (TZM-bl cells; peptide 0.26 µM): 89.63 | viability 1.3 µM (TZM-bl cells; peptide 1.3 µM): 83.12 | viability 6.5 µM (TZM-bl cells; peptide 6.5 µM): 68.76

RGDSGGGGGGKIKIQIC
Number of Aggregates / Aggregate Number [1]: 72

CKIKQII
Number of Aggregates / Aggregate Number [1]: 76 ± 12 and 76

HHHHKIKIKIKIYYYY
Number of Aggregates / Aggregate Number [1]: 147

CKFKQFFNM
Number of Aggregates / Aggregate Number [1]: 704 ± 90 and 704

CQFQFQF
Number of Aggregates / Aggregate Number [1]: 46

CKIKIQI
Number of Aggregates / Aggregate Number [1]: 317 ± 36 and 317

CKAKAQANMWQ
Number of Aggregates / Aggregate Number [1]: 6

CKFKFQFW
Number of Aggregates / Aggregate Number [1]: 517

HHHHKIKIQINMYYYY
Number of Aggregates / Aggregate Number [1]: 234

HHHHKIKIKIKIWWWW
Number of Aggregates / Aggregate Number [1]: 446

KIKIQIC
Number of Aggregates / Aggregate Number [1]: 82

CSISIQI
Number of Aggregates / Aggregate Number [1]: 123
